We go through 9 compounds from patent publication US20070265196A1, “Method of Modulating Pro-Inflammatory and Inflammatory Activity Mediated by C-Reactive Protein” (MEDVET SCIENCE PTY., LTD., priority 2004, published 2007).

Entries after “also recorded” stand apart in the source; their conditions may differ.

Data set [1] concerns C-reactive protein-induced expression of E-selectin, VCAM-1 and ICAM-1. Put plainly: Inhibition of C-reactive protein-induced cell-surface adhesion molecule expression in HUVEC (flow cytometry). It is filed as cell-based, human. Particulars: for effect on C-reactive protein-induced expression of adhesion molecules (E-selectin, ICAM-1, VCAM-1): 16 hrs preincubation in serum-free medium, then C-reactive protein 10 μg/ml for 5 hrs; for effect of antioxidant on PLPC-dependent inhibition of C-reactive protein-induced E-selectin expression: HUVEC preincubated 16 hrs with 35 μM PLPC in presence of the antioxidant. As for the experimental part: (§1) Human umbilical vein endothelial cells (HUVEC) and bovine aortic endothelial cells (BAEC) were isolated and cultured as described previously (Wall et al (1978)). Cells were used at passages 2 to 3 for HUVEC and passages 3-10 for BAEC. For detection of adhesion molecules, HUVEC were incubated overnight in Opti-MEM serum free medium (Gibco, Invitrogen Corporation) in the presence or absence of HDL and then treated with recombinant human C-reactive protein (Calbiochem) for 5 hrs unless indicated otherwise. After the treatment, cells were washed with medium M199 and incubated with primary monoclonal antibodies against E-selectin, VCAM-1, ICAM-1 or isotype-matched nonrelevant control antibodies for 30 min as described previously (Gamble et al (1993)). Cells were then incubated with fluorescein isothiocyanate-conjugated secondary antibody for 30 min. The cells were then harvested by trypsinization and fixed in 2.5% formaldehyde (antibody binding prior to trypsinizing has been reported to prevent the partial hydrolyzation of the surface adhesion molecules (Grabner et al (2000))). The expression of cell-surface adhesion molecules was measured as fluorescence intensity by use of a Coulter Epics Profile XL flow cytometer. Unless stated otherwise, the results represent mean fluorescence of the positive population±SEM from one experiment and are representative at least three independent experiments. Differences between means were evaluated by Student's t-tests. ANOVA was used to identify statistical significance of multiple comparisons.
As described previously (Ashby et al (1998)) the lipoproteins were isolated from normal healthy adult donors by sequential ultracentrifugation in their appropriate density range: total HDL 1.07<d<1.21 and LDL 1.019<d<1.055 g/ml. The resulting preparations of lipoproteins were dialyzed against endotoxin-free PBS (pH 7.4) prior to use. Discoidal reconstituted HDL containing apoA-I and PLPC, were prepared by the cholate dialysis method described by Matz (1982). Small unilamellar vesicles (SUVs) containing either PLPC or 1-palmitoyl-2-oleoyl-sn-glycero-3-phosphocholine (POPC), in butylated hydroxytoluene (BHT) (molar ratio of PC to BHT, 10:1), were prepared in PBS precisely as described by Jonas (1986). Oxidation of SUV was produced by incubation with 5 μM CuSO4 in the absence of BHT for 48 hours at 37° C.

Data set [2] relates to HUVEC expression of E-selectin, VCAM-1 and ICAM-1. Description: Induction of adhesion molecule expression in HUVEC by the substance itself (flow cytometry). The settings on record: for effect of heating at 65° C. for 1 hour on activity (E-selectin induction): heated 65° C., serum free medium. It is filed as cell-based, human. As for the experimental part: as §1
Data set [3] has as its system adherence of U937 cells to C-reactive protein-activated BAEC. Description: Adherence of U937 cells to C-reactive protein-treated BAEC. Format: cell-based, bovine. Particulars: BAEC incubated with C-reactive protein for 24 hours. As for the experimental part: U937 cells (CRL 1593.2; ATCC) were colorimetrically labelled with 0.2 mg/ml 3-(4,5-dimethylthiazol-2-yl)-2,5-diphenyltetrazolium bromide (MTT; Promega) in normal culture medium for 30 min at 37° C. The cells were collected by low-speed centrifugation and resuspended at a density of 2×10^5 cells/ml in medium without FCS. BAECs were seeded into 24-well plates and treated as desired in triplicate. After the treatment, BAECs were washed twice with RPMI-1640 medium. The MTT-labelled U937 cell suspension (200 μl/well) was then added into the BAEC cultures and incubated for 30 min at 37° C. Non-adherent cells were removed by rinsing the plates three times with PBS, and the number of adherent cells was counted under microscopy at least 4 fields per well.

Regarding `CCCCC/C=C\C/C=C\CCCCCCCC(=O)OC(COC(=O)CCCCCCCCCCCCCCC)COP(=O)([O-])OCC[N+](C)(C)C` (stereo not drawn) [PLPC], the “C-reactive protein-induced E-selectin expression, substance added simultaneously with C-reactive protein” value in data set [1] (HUVEC, 35 μM, C-reactive protein 10 μg/ml 5 hrs, no pre-incubation) is “not”. Also, in data set [1] (HUVEC, 1-hour pre-incubation), the “inhibitory effect on C-reactive protein-induced adhesion molecule expression after 1-hour pre-incubation” value is “no inhibitory effect”. Moreover, the “inhibitory effect on C-reactive protein-induced adhesion molecule expression when added simultaneously with C-reactive protein” value in data set [1] (HUVEC, no pre-incubation) is “no inhibitory effect”. Further, in data set [1] (HUVEC, washout), the “persistence of inhibitory effect when removed from the medium after 16-hour pre-incubation before C-reactive protein activation” value is listed as “did not persist”. Further, the “effect of the substance alone on adhesion molecule expression” value in data set [2] (HUVEC) was “had no effect”.
Regarding `CCCCCCCC/C=C\CCCCCCCC(=O)O[C@H](COC(=O)CCCCCCCCCCCCCCC)COP(=O)([O-])OCC[N+](C)(C)C` [POPC SUVs, 1-palmitoyl-2-oleoyl-sn-glycero-3-phosphocholine], the “effect on C-reactive protein-induced expression of adhesion molecules (E-selectin, ICAM-1, VCAM-1)” value in data set [1] (HUVEC) was “no inhibitory effect”. The “effect of CuSO4-exposed phospholipid on C-reactive protein-induced adhesion molecule expression” value in data set [1] (HUVEC, control exposed to CuSO4) is recorded as “did not affect”.
As to `CC(Cc1ccc(O)c(O)c1)C(C)Cc1ccc(O)c(O)c1` (stereo not drawn) [nordihydroguaiaretic acid], the “effect of antioxidant on PLPC-dependent inhibition of C-reactive protein-induced E-selectin expression” value in data set [1] is “reversed in a dose-dependent manner”; in data set [1] (listed as NDGA), “completely abolish”.
With `C[N+](C)(C)CCOP(=O)(O)O` [phosphorylcholine], in data set [1] (up to 100 μM added to the medium), the “effect on the C-reactive protein's activity” value was “had no effect”.
In the case of `CCCCCCCCCCC[C@@H](C[C@@H]1OC(=O)[C@H]1CCCCCC)OC(=O)[C@H](CC(C)C)NC=O` [tetrahydrolipstatin], in data set [1] (HUVEC), the “effect of lipase inhibitor treatment of cells on the anti-inflammatory activity of PLPC” value is reported as “not affected”.
As for `Cc1c(C)c2c(c(C)c1O)CC[C@@](C)(CCC[C@H](C)CCC[C@H](C)CCCC(C)C)O2` [α-tocopherol], the “effect of antioxidant on PLPC-dependent inhibition of C-reactive protein-induced E-selectin expression” value in data set [1] is on record as “reversed in a dose-dependent manner; also recorded: completely abolish”. Moreover, in data set [2] (HUVEC), the “effect of the substance alone on adhesion molecule expression” value was “had no effect”.
Turning to “C-reactive protein: recombinant human C-reactive protein (Calbiochem), proinflammatory stimulus”, the “increase in adhesion of U937 cells to BAEC” value in data set [3] is given as “more than 6 fold”. Moreover, the “concentration at which dose-dependent activity reaches a maximum” value in data set [2] (E-selectin expression, HUVEC stimulated 5 hrs) lay within 10 to 20 µg/mL. Also, in data set [2] (HUVEC treated with C-reactive protein (10 μg/ml, 5 hrs)), the “cell surface expression of E-selectin VCAM-1 and ICAM-1” value is on record as “significant increase”. For the same compound, in data set [2] (HUVEC, fresh (unconditioned) serum-free medium), the “inflammatory effect in fresh serum-free medium” value is on record as “no inflammatory effect”. The “effect of heating at 65° C. for 1 hour on activity (E-selectin induction)” value in data set [2] (HUVEC) is on record as “completely eliminated”.
As for Lipopolysaccharide [LPS], the “induction of adhesion molecule expression” value in data set [2] (HUVEC, concentrations of up to 1 ng/ml) is recorded as “insufficient to induce”. Besides, the “effect of heating at 65° C. for 1 hour on activity (E-selectin induction)” value in data set [2] (HUVEC) is reported as “did not alter”.
In the case of “lipid-free apoA-I: lipid-free apolipoprotein A-I, the protein component of rHDL”, the “effect on C-reactive protein-induced expression of adhesion molecules (E-selectin, ICAM-1, VCAM-1)” value in data set [1] (HUVEC) was “had no effect”.
